Data reported in patent US12351565B2, “Aromatic compound and preparation method therefor and use thereof” (SHANGHAI JIANHE PHARMACEUTICAL & TECHNOLOGY CO. LTD., priority 2018, dated 2025).

Test system: C57 mice
Test: Forced swimming experiment, oral administration to mice
Format: in vivo
Conditions: inhibition of immobility time, C57 mice
How it was run: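 Male C57 mice (6 weeks) dosed once orally at 20 mg/kg in 0.9% NaCl, tested 1 h and 24 h later after a 10 min pre-swim the day before. Immobility over the last 4 min of a 6 min swim (water 23-25° C); inhibition rate (%) calculated against blank group at each time.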

SMILES: Cl.N[C@]1(c2ccc(C(F)(F)F)cc2)CCC[C@H](O)C1=O [Compound 51, (2S,6S)-2-amino-6-hydroxy-2-(4-(trifluoromethyl)phenyl)cyclohexane-1-one hydrochloride]
- 1 h inhibition rate (forced swimming 1 h after single oral (intragastric) 20 mg/kg): 66.9 ± 0.3%
- 24 h inhibition rate (forced swimming 24 h after single oral (intragastric) 20 mg/kg): 38.6 ± 2.1%
